Reference: patent publication US6479251B1, “Colorimetric test for agents that induce mitochondrial dysfunction” (priority 1999, dated 2002)

How the values were obtained:
Type in all cases: cell-based
[1] = test system: S. cerevisiae strain YPH499; assay: Growth of white colonies on glycerol (nonfermentable carbon source) agar
Description: (§1) FIGS. 1A and 1B show visual color identification of mitochondrial dysfunction. The wild type S. cerevisiae YPH499 was gown in YPD (1% yeast extract, 2% bactopeptone and 2% dextrose) to log phase at 30° C. The log phase culture was centrifuged, resuspended in water containing adriamycin (150 μg/ml) for one hour. Appropriate dilutions of the culture were plated on YPD agar and incubated at 30° C. for 3-4 days. […] FIG. 1B: white colonies from treated cells in FIG. 1A wee replicated on to agar medium containing 2% dextrose (left) and 2% glycerol (right).
(§2) The yeast S. cerevisiae strain YPH499 (a ura3-52, lys2-801, ade2-101, trpl-63, his3-200, leul-1) was grown in YPD to log phase. Cell were then harvested and suspended in water containing various concentration of adriamycin for one hour. In order to test whether white colonies were defective in mitochondrial function, we transferred the colonies to an agar media containing glycerol (nonfermentable carbon source). Utilization of glycerol by an eukaryotic cell requires intact mitochondrial function (2). […] The number of surviving colonies that were white reached about 30% at 150 μglml concentration.

[2] = test system: S. cerevisiae strain YPH499; assay: Colorimetric test: red to white colony colour change on YPD agar after treatment
Description: as §1
The wild type S. cerevisiae YPH499 was grown in YPD to log phase at 30° C. The culture was centrifuged, resuspended in water containing various concentrations of adriamycin as indicated for one hour. Appropriate dilutions of the culture were plated on YPD agar and incubated at 30° C. Colonies were counted after 3-4 days. Values presented are the average of four determinants.
FIGS. 5A, 5B, and 5C show the percentage of white colonies produced after treatment with physical or chemical agents. Exponentially growing cells were treated with various doses of UV (FIG. 5A) or various lengths of time (MMS (FIG. 5B) and H2O2 (FIG. 5C)). For UV treatment appropriate dilutions of culture were plated on YPD agar and exposed to UV using STRATALINKER (Stratagene). For MMS and H2O2 treatments, cells were exposed in liquid YPD medium.
as §2

[3] = test system: mitDNA of S. cerevisiae white colonies
Description: FIGS. 3A-3D show mitochondrial genome changes induced by adriamycin. Various white S. cerevisiae colonies produced after treatment with adriamycin were grown to log phase and stained with DAPI, which stains DNA. FIG. 3A: wild type; FIG. 3B: a Rho^0 strain (devoid of mitochondrial genome); FIG. 3C: a representative white cell lacking mitochondrial genome; and FIG. 3D: a representative cell containing mutant mitochondrial DNA.
White S. cerevisiae colonies produced after treatment with physical or chemical agents were grown to log phase and stained with DAPI. FIG. 6A: Wild type; FIG. 6B: A Rho^0 strain; FIG. 6C: adriamycin; FIG. 6D: hydrogen peroxide; FIG. 6E: UV; FIG. 6F: Methylmethane sulfonate. For FIGS. 6C-F, the cells on the right contains mutant mitDNA and the cell on the left lacks a mitochondrial genome.
DNA was stained with a fluorescent dye, 4,6-diamidino-2-phenylindole (DAPI)(2). […] In this study, a known yeast strain lacking mitDNA (Rho^0) served as a negative control (FIG. 3B, only nuclear DNA is stained).

[4] = test system: S. cerevisiae diploid cells (white colonies x Rho0); assay: Mating of haploid white colonies with Rho0 strain YPH 500, growth of diploids on glycerol medium; conditions: a total of 143 diploid cells from white colonies after adriamycin treatment mated with Rho0 (FIG. 4)
Description: FIGS. 4A and 4B show growth comparison of haploid and diploid S. cerevisiae cells. FIG. 4A: Various white colonies produced after treatment with adriamycin were streaked on YP glycerol plates. FIG. 4B: The same white colonies were mated with an opposite mating type strain of yeast lacking mitochondrial DNA on YPD plates. The diploid yeast strains were tested for growth on YP glycerol medium.
The genetic approach employed involved mating haploid white colonies generated after adriamycin treatment (shown in FIG. 2, “a” mating type) with a haploid Rho^0 strain (of opposite mating type “α” YPH 500 (ura3-52, lys2-801, ade2-101, trpl-63, his3-200, leu2-1) lacking mitDNA (3). The diploid cells (a total of 143) were tested for growth on glycerol medium. If the white cells contained a mutation in a nuclear gene affecting the mitochondrial function, it can be expected that diploid cells will grow on glycerol because a nuclear defect can be complemented with Rho^0 (because it contains intact nuclear DNA but lacks mitDNA). […] Together, these studies indicate that adriamycin preferentially damages mitDNA. This preferential damage by adriamycin can result either in complete loss of mitDNA (due to severe damage) and/or mutations in mitDNA (due to minor damage FIG. 3).

`COS(C)(=O)=O` [MMS, methyl methane sulphonate] was tested, and the “growth of white colonies on glycerol” value [1] was “do not grow on glycerol”, the “increase in white colonies” value [2] was “did” and the “microscopic and genetic tests of white colonies (mitDNA status)” value ([3]; white colonies obtained after treatment with physical or chemical agents (FIG. 6)) was “either contained mutant mitDNA or lacked mitDNA at all”.
`OO` [H2O2, hydrogen peroxide] was tested, and the “increase in white colonies” value [2] was “did not result in increased white colonies”.
With `COc1cccc2c1C(=O)c1c(O)c3c(c(O)c1C2=O)C[C@@](O)(C(=O)CO)C[C@@H]3O[C@H]1C[C@H](N)[C@H](O)[C@H](C)O1` [adriamycin] the “growth of diploid cells on glycerol medium” value [4] was “none grew on glycerol medium”, the “growth of randomly chosen white colonies on glycerol plates” value ([1]; white colonies obtained after adriamycin treatment (FIG. 1B)) was “none were able to grow” and the “number of surviving colonies that were white” value ([2]; adriamycin 150 μglml in water for one hour, plated on YPD agar, 30° C., 3-4 days) was “about 30%”. For the same compound, the “white colonies versus dose” value ([2]; various concentrations of adriamycin in water for one hour (FIG. 2)) was “increase number of white colonies with increasing dose” and the “DAPI DNA staining of white colonies (mitDNA present or lost)” value ([3]; white colonies obtained after adriamycin treatment (FIG. 3)) was “two types of DNA staining”.
